PMC7069944, “Amino acid levels determine metabolism and CYP450 function of hepatocytes and hepatoma cell lines” (Nature Communications, 2020)
Values joined by “and” are separate entries in the source; they are usually repeats but may differ in a detail not shown here. Equal values may be shown once. Read-outs that look alike come from different tables or passages of the source.

Experiments:
[1] = target: CYP3A4 (Homo sapiens, UniProt P08684)
Protocol: Comparative CYP450 biotransformation studies were performed to assess functionality across a number of gold standard primary hepatocyte models. Cryopreserved PHHs were obtained from a single donor (Lonza, Breda, The Netherlands) or pooled donors (Thermo Scientific, Merelbeke, Belgium). Upon thawing, cell suspensions (0.5 million cells/ml) were prepared in WE medium using 24-well plates (0.5 ml/well) on an orbital shaker and metabolization activity was assessed following a 15 min equilibration period. Human Hepatopac® plates were obtained from Ascendance Biotechnology (Ascendance Biotechnology, Boston USA) and cultures were maintained following instructions of the provider. Spheroid cultures were generated in-house as essentially described by Bell et al.[42].
Finally, the system was re-equilibrated at 60% (A)/40% (B) for an additional 0.7 min. Total run time was 3.8 min and 2 µl aliquots were injected onto the system for analysis.
All data collection, processing, and analysis was performed with Analyst® software (v1.6.2. SCIEX).

[2] = test system: CYP3A4; experiment: qRT-PCR CYP3A4 expression in HepG2; assay type: cell-based, human; conditions: single amino acid supplementation, relative to CTL (CTL values equal HepG2 D7 CTL)
Protocol: AA supplementation was accomplished through the addition of MEM Non-Essential Amino Acids Solution (100 × ) and MEM Amino Acids Solution (50 × ) (Thermo Scientific) to the culture medium. For AA1, AA2, and AA3 medium, we added respectively 2 ml, 8 ml, and 16 ml of non-essential AA solution and 1 ml, 4 ml, and 8 ml of essential AA solution per 100 ml of LDM, with or without glucose. Culture medium was then made PH neutral through the addition of NaOH. […] PSC derived HLCs were differentiated in LDM until D12. AA supplementation (AA1, AA2 and AA3) was performed from day 12 until day 20, 30 or 40 of differentiation. […] HepG2, HUH7.5, Hep3B, HHL5, and HEK293 cells were maintained in DMEM supplemented with 10% fetal bovine serum as shown in Supplementary Table 4. AA supplementation consisted of addition of 16 ml of non-essential AA mix and 8 ml of essential AA mix per 100 ml of medium and a further addition of 20 g/l of any of the single AAs. […] PHHs were maintained in a medium composition that was based on WE as detailed in ref. [67].
RNA extraction was performed using the GenElute Mammalian Total RNA Miniprep Kit (Sigma-Aldrich). Then, genomic DNA was eliminated using the On-Column DNase I Digestion kit (Sigma-Aldrich). Last, 1 µg of RNA was transcribed to cDNA using the Superscript III First-Strand synthesis (Invitrogen). Gene expression analysis was performed using the Platinum SYBR green qPCR supermix-UDG kit (Invitrogen) in a ViiA 7 Real-Time PCR instrument (Thermo Scientific, Waltham, MA). The sequences of all used qRT-PCR primers are listed in Supplementary Table 6. Of these, ribosomal protein L19 (RPL19) was used as a housekeeping gene for normalization.

[3] = test system: cells cultured in AAGLY medium; experiment: Single-exposure toxicity, summary value of this study (Boon et al); assay type: cell-based; conditions: Homo sapiens, single 24 h exposure
Protocol: To evaluate the ability to predict hepatotoxicity, we adapted the differentiation assays to a 384-well format. […] As a readout, we evaluated cell viability by resazurin conversion and correlated the results to therapeutic doses (Cmax values).
PSCs were differentiated in a 384-well format. […] As a negative control, 41 wells were left untreated. HepG2 were seeded at 40,000 cells per well. […] Cells were fixed with 4% PFA. […] Drugs were administrated after 8 h of attachment.

[4] = test system: Spheroid of PHHs; parameters: method as in ref 3 (a number printed in a supplementary file, which may have a reference list of its own: not looked up in the article's list); conditions: 48h, ATP; cited from earlier work
[5] = test system: Co-culture of endothelial cells and mouse hepatocytes; parameters: method as in ref 12 (a number printed in a supplementary file, which may have a reference list of its own: not looked up in the article's list); conditions: 36h, Cell count; cited from earlier work
[6] = test system: PHH; parameters: method as in ref 15 (a number printed in a supplementary file, which may have a reference list of its own: not looked up in the article's list); conditions: 24h, ALT release; cited from earlier work
[7] = test system: Cryopreserved PHH; parameters: method as in ref 16 (a number printed in a supplementary file, which may have a reference list of its own: not looked up in the article's list); conditions: 48h, ATP; cited from earlier work
[8] = test system: Rat hepatocytes; parameters: method as in ref 17 (a number printed in a supplementary file, which may have a reference list of its own: not looked up in the article's list); conditions: 24h, MTT; cited from earlier work
[9] = test system: Co-culture of PHHs and fibroblasts; parameters: method as in ref 4 (a number printed in a supplementary file, which may have a reference list of its own: not looked up in the article's list); conditions: 24h, ATP; cited from earlier work
[10] = test system: HLCs; experiment: Single-exposure toxicity, Hoechst/DRAQ7 live cell number, HLCs
Protocol: (§1) PSCs were differentiated in a 384-well format. Cells were treated with 14 different concentrations of compounds in 6 repeats. As a negative control, 41 wells were left untreated. HepG2 were seeded at 40,000 cells per well. For control conditions, HepG2 were exposed after 2 days of culture. […] Cells were fixed with 4% PFA. Imaging was done using an Operetta High-Content Imaging System (Perkin Elmer) and image analysis was performed using Harmony software (Perkin Elmer). […] As a positive control, 1 donor of PHHs was seeded at 10,000 cells per well. Drugs were administrated after 8 h of attachment.

[11] = test system: HepG2; experiment: Single-exposure toxicity, Hoechst/DRAQ7 live cell number, HepG2; conditions: for IC50: Homo sapiens
Protocol: as §1

[12] = test system: PHHs; experiment: Single-exposure toxicity, Hoechst/DRAQ7 live cell number, PHH 12 h; conditions: Homo sapiens, read-out: IC50 single exposure, Mean
Protocol: as §1

[13] = test system: HC6X in the H9-ESC background; experiment: Single-exposure toxicity, Hoechst/DRAQ7 live cell number, HC6X (H9-ESC); conditions: for IC50: Homo sapiens
Protocol: as §1

[14] = test system: HC6X in the BJ1-iPSC background; experiment: Single-exposure toxicity, Hoechst/DRAQ7 live cell number, HC6X (BJ1-iPSC); conditions: Homo sapiens
Protocol: as §1

[15] = test system: CYP3A4; experiment: CYP3A4-dependent BFC metabolization (fluorometric probe); assay type: in vitro ADME, human; conditions: for BFC metabolisation: Figure 2B, replicate values; for BFC metabolisation (pmol/h/1000000cells): Figure 1D
Protocol: Urea concentrations in the medium were analyzed after 24 h of culture using the QuantiChromTM Urea Assay Kit (BioAssay Systems DIUR-500) according to the manufacturer’s instructions. […] Metabolization was assessed for 1 h and 4 h incubation times. […] The albumin secretion rate was quantified using the human albumin ELISA quantification kit (Bethyl) according to instructions provided in the kit.

CYP3A4 (Homo sapiens, UniProt P08684), sequence (P08684 whole entry): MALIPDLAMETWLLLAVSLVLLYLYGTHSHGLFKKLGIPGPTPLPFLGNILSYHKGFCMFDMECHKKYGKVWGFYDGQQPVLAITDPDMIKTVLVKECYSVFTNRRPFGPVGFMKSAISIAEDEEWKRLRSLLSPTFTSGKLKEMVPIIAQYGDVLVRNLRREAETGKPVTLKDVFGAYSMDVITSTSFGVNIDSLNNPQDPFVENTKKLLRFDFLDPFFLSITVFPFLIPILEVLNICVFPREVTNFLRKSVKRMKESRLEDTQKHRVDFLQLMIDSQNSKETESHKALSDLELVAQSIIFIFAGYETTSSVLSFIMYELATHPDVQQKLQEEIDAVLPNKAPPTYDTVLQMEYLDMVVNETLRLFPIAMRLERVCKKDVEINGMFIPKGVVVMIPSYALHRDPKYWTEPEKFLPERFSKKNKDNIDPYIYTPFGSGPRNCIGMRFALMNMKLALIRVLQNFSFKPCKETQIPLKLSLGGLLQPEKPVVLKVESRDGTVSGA

## OCc1ncc2n1-c1ccc(Cl)cc1C(c1ccccc1F)=NC2 [1-OH midazolam]
[1]; HepG2 AAGLY D32
  1-OH midazolam formation (drug biotransformation cocktail): 5.9655 and 7.1394 and 9.0214
[1]; Hepatopac
  1-OH midazolam formation (drug biotransformation cocktail): 23.2481 and 33.0328 and 45.6546
[1]; PHH1
  1-OH midazolam formation (drug biotransformation cocktail): 5.4616 and 6.486

## OCc1ncc2n1-c1ccc(Cl)cc1C(c1ccccc1F)=NC2 [10H-midazolam]
[1]; HC6X AAGLY D40, D46
  Stable 10H-midazolam metabolisation rate: 371.429 ng/h/100 000 cells and 443.182 ng/h/100 000 cells and 446.97 ng/h/100 000 cells
[1]; HC6X AAGLY D40, D48
  Stable 10H-midazolam metabolisation rate: 353.788 ng/h/100 000 cells and 537.879 ng/h/100 000 cells and 462.121 ng/h/100 000 cells
[1]; HepG2 AAGLY D30, column head D40
  Stable 10H-midazolam metabolisation rate: 79.0741 ng/h/100 000 cells and 82.3438 ng/h/100 000 cells and 89.7887 ng/h/100 000 cells
[1]; HepG2 AAGLY D30, column head D42
  Stable 10H-midazolam metabolisation rate: 185 ng/h/100 000 cells and 122.333 ng/h/100 000 cells and 146.406 ng/h/100 000 cells
[1]; HepG2 AAGLY D30, column head D46
  Stable 10H-midazolam metabolisation rate: 133.654 ng/h/100 000 cells and 137.308 ng/h/100 000 cells and 133.846 ng/h/100 000 cells
[1]; HepG2 AAGLY D30, column head D48
  Stable 10H-midazolam metabolisation rate: 133.333 ng/h/100 000 cells and 151.667 ng/h/100 000 cells and 136.296 ng/h/100 000 cells
[1]; HepG2 AAGLY D30, column head D50
  Stable 10H-midazolam metabolisation rate: 105 ng/h/100 000 cells and 107.963 ng/h/100 000 cells and 103.75 ng/h/100 000 cells

## C[C@H](N)C(=O)O [ALA, alanine]
[2]
  Relative CYP3A4 expression: 353.956 and 394.102 and 280.416

## CC(=O)Nc1ccc(O)cc1 [APAP, acetaminophen]
[3]
  IC50: 10 mM
[4]
  IC50: 10 mM
[5]
  IC50: 7 mM
[6]
  IC50: ~10 mM
[7]
  IC50: > 25 mM
[8]
  IC50: 7.6 mM
[9]
  IC50: 5.5 mM
[10]; H9 HLC AAGLY D40
  IC50 single exposure, Mean: No toxicity
[10]; H9 HLC LDM D40
  IC50 single exposure, Mean: No toxicity
[10]; HLC cultured in basal medium
  toxicity after single administration: no toxicity
[11]; HepG2 CTL D7
  IC50 single exposure, Mean: no toxicity
[11]; HepG2 cultured in basal medium
  toxicity after single administration: no toxicity
[11]; HepG2, read-out: IC50 single exposure, Mean, HepG2 AAGLY D30
  IC50: 11.9 mM
[11]; HepG2, read-out: IC50 single exposure, Mean, HepG2 AAGLY D40
  IC50: 12 mM
[12]
  IC50: 13.3 mM
[13]; HC6X cultured in basal medium
  toxicity after single administration: no toxicity
[13]; read-out: IC50 single exposure, Mean, H9 HC6X AAGLY D40
  IC50: 12.1 mM
[13]; read-out: IC50 single exposure, Mean, H9 HC6X AAGLY D50
  IC50: 9.91 mM
[14]; read-out: IC50 single exposure, Mean, BJ1 HC6X AAGLY D40
  IC50: 12 mM
[14]; read-out: IC50 single exposure, Mean, BJ1 HC6X AAGLY D50
  IC50: 8.66 mM

## O=c1cc(C(F)(F)F)c2ccc(OCc3ccccc3)cc2o1 [BFC, 7-benzyloxy-4-trifluoromethylcoumarin]
[15]; HC3X AAGLY D20
  relative BFC metabolsiation (compared to PHH 0h): 13.5398 and 11.6179 and 10.8677
[15]; HC3X AAGLY D40
  relative BFC metabolsiation (compared to PHH 0h): 91.111 and 105.714 and 91
[15]; HC3X AAGLY D50
  relative BFC metabolsiation (compared to PHH 0h): 143.333 and 136.667 and 101.19
[15]; HC3X D20
  BFC metabolisation: 21.4494 pmol/h/1000000 cells and 25.0015 pmol/h/1000000 cells and 28.2425 pmol/h/1000000 cells
[15]; HC3X LDM D20
  relative BFC metabolsiation (compared to PHH 0h): 1.9009 and 2.216 and 2.503
[15]; HLC AAGLY D20
  relative BFC metabolsiation (compared to PHH 0h): 5.305 and 4.4 and 6.066
[15]; HLC D20
  BFC metabolisation (pmol/h/1000000cells): 11.7761 pmol/h/1000000cells and 11.0043 pmol/h/1000000cells and 15.6069 pmol/h/1000000cells
  BFC metabolisation: 11.7761 pmol/h/1000000 cells and 11.0043 pmol/h/1000000 cells and 15.6069 pmol/h/1000000 cells
[15]; HLC LDM D20
  relative BFC metabolsiation (compared to PHH 0h): 1.044 and 0.9752 and 0.9879
[15]; HLC LDM D40
  relative BFC metabolsiation (compared to PHH 0h): 4.464 and 8.743 and 7.646
[15]; PHH 0h
  relative BFC metabolsiation (compared to PHH 0h): 101.025 and 82.5131 and 116.462
  BFC metabolisation (pmol/h/1000000cells): 1139.95 pmol/h/1000000cells and 931.065 pmol/h/1000000cells and 1314.14 pmol/h/1000000cells
  BFC metabolisation: 1139.95 pmol/h/1000000 cells and 1031.07 pmol/h/1000000 cells and 1214.14 pmol/h/1000000 cells
[15]; PHH 12h
  relative BFC metabolsiation (compared to PHH 0h): 9.941 and 9.524
  BFC metabolisation (pmol/h/1000000cells): 112.17 pmol/h/1000000cells and 107.467 pmol/h/1000000cells and 156.494 pmol/h/1000000cells
  BFC metabolisation: 112.17 pmol/h/1000000 cells and 107.467 pmol/h/1000000 cells and 156.494 pmol/h/1000000 cells
